The test has as its target T1, IL-1RtI (Homo sapiens, UniProt P14778).
T1 construct: made in house; host or cells: recombinant host cells (one form soluble from baculovirus transformed host cells; another PIG-tailed and cleaved from the cell surface)
T1 sequence (P14778 18-336): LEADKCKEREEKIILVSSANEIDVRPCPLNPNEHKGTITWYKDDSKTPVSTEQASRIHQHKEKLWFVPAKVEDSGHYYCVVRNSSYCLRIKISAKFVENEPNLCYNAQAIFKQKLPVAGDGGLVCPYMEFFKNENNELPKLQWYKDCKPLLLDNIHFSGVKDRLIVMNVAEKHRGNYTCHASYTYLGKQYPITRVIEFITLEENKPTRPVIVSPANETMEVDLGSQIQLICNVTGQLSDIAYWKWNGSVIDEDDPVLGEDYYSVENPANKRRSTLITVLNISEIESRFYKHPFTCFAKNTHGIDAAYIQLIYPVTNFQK
As to the kind of experiment: Inhibition of 125I-IL-1α binding to IL-1RtI (Example 3). The procedure: This example provides the results of experiments conducted to determine an approximate IC50 for certain peptides of the invention. IC50 as used herein refers to the concentration of a compound which will inhibit 50% of the binding between a receptor and its ligand, e.g. IL-1RtI and IL-1. Stock solutions of each peptide were prepared. The appropriate amount of the peptide was dissolved in DMSO, and then nineteen volumes of binding buffer (RPMI 1640, 1% BSA, 20 mM HEPES, pH 7.2-7.3, and 0.1% sodium azide) were added to yield a 1 mM peptide, 5% DMSO stock solution.
One assay utilized a truncated IL-1RtI which had been immobilized on 96-well plates with an appropriate antibody, typically a non-blocking high affinity antibody. In other assays, cells expressing "full-length" IL-1RtI were used with results that yielded IC50 values about 5 to 10 fold lower than those determined using the truncated receptor. The cells were seeded onto Falcon 3072 96-well plates at about 10^5 cells per well, and the plates were incubated overnight at 37° C. in media containing serum. The following morning, the cells were checked to ensure that the cells were confluent and adhered to the bottom of the wells.
According to either assay protocol, the plates were then washed three times with binding buffer, and then 50 μl of binding buffer and 25 μl of a peptide solution (either the stock solution or a dilution thereof; each stock was subjected to five three fold dilutions) were added to each well. Then 25 μl of binding buffer containing ^125 I-IL-1α (final concentration of 90 pM) were added to each well to begin the assay. Each assay was carried out in duplicate. The plates were then incubated for two hours at 4° C. For peptides having particularly high affinities, the assay was run in 24 well plates allowing for higher levels of ligand (possible total volume of 2.5 ml instead of 100 μl in the 96 well plate), thereby minimizing the potential for ligand depletion.
After the two hour incubation, the wells were rinsed three times with ice cold PBS (a semi-automated cell harvesting device was used to conduct the rinse). The receptors or cells were then detached from the plates by adding 100 μl of 0.1N NaOH to each well and incubating the plates at room temperature for 20 minutes. After the 20 minute incubation, about 75 μl of the suspension was counted on a gamma counter, and the IC50 for each peptide was determined using computer assistance and the results of the gamma counting.

The mark [1] stands for this setting: inhibition of 125I-IL-1α binding to IL-1RtI, soluble peptide unless marked *.

pIC50: −log10 of the molar value. Like-named read-outs stand apart in the source and are kept apart here. Where a SMILES comes first, the peptide text is derived from it. Where no end group is shown, it is not given here. [ ]: non-standard residue; d: D form. Bpa = N[C@@H](Cc1ccc(C(=O)c2ccccc2)cc1)C(=O)O; Pip = O=C(O)[C@@H]1CCCCN1; Aze = O=C(O)[C@@H]1CCN1; Aib = CC(C)(N)C(=O)O; Sar = CNCC(=O)O Bounds are passed on as bounds.

As to `C[C@H](NC(=O)[C@H](Cc1ccc(O)cc1)NC(=O)CNC(=O)[C@@H]1CCCN1C(=O)[C@@H](NC(=O)[C@H](Cc1c[nH]c2ccccc12)NC(=O)[C@H](CCC(=O)O)NC(=O)[C@@H](N)Cc1ccccc1)[C@@H](C)O)C(=O)N[C@@H](CCC(N)=O)C(=O)N1CC[C@H]1C(=O)N[C@@H](Cc1ccc(O)cc1)C(N)=O` [FEWTPGYAQJY--NH2] (H-FEWTPGYAQ[Aze]Y-NH2), under setting [1], the pIC50 was at least 4.00.

As to EWTPGYWQPY-NH2 [EWTPGYWQPY--NH2], under setting [1], the pIC50 was at least 4.00. As for QIDNTAWYERFLLQYNA [QIDNTAWYERFLLQYNA], the pIC50 is over 6.30. For the compound “SWTDYGYWQPYALPISGL [SWTDYG YWQPYA LPISGL]”, under setting [1], the pIC50 is at least 6.30.

Under setting [1], DSYWWQPYALPL [DSYWWQ PYALPL] had a pIC50 of at least 4.00. Same read-out and setting: the value for `CC(=O)N[C@@H](Cc1ccc(C(=O)c2ccccc2)cc1)C(=O)N[C@@H](CCC(=O)O)C(=O)N[C@@H](Cc1c[nH]c2ccccc12)C(=O)N[C@H](C(=O)N1CCC[C@H]1C(=O)NCC(=O)N[C@@H](Cc1ccc(O)cc1)C(=O)N[C@@H](Cc1ccc(O)cc1)C(=O)N[C@@H](CCC(N)=O)C(=O)N1CC[C@H]1C(=O)N[C@@H](Cc1ccc(O)cc1)C(N)=O)[C@@H](C)O` [AcBpa--EWTPGYYQJY--NH2] (Ac-[Bpa]EWTPGYYQ[Aze]Y-NH2) was at least 6.30; that for DWFQPYSIQSDE [DWFQPYSIQSDE] was at least 4.00. On the same count and under the same terms, the value for ARFWLQPYALPL [ARFWLQ PYALPL] was at least 4.00; that for `C[C@@H](O)[C@H](NC(=O)[C@H](Cc1ccc(C(=O)c2ccccc2)cc1)NC(=O)[C@H](CCC(=O)O)NC(=O)[C@@H](N)Cc1ccccc1)C(=O)N1CCC[C@H]1C(=O)NCC(=O)N[C@@H](Cc1ccc(O)cc1)C(=O)N[C@@H](Cc1ccc(O)cc1)C(=O)N[C@@H](CCC(N)=O)C(=O)N1CC[C@H]1C(=O)N[C@@H](Cc1ccc(O)cc1)C(N)=O` [FE--Bpa--TPGYYQJY--NH2] (H-FE[Bpa]TPGYYQ[Aze]Y-NH2) was under 4.00. Still for that read-out and setting: under `C[C@H](NC(=O)[C@@H]1CCN1C(=O)[C@H](CCC(N)=O)NC(=O)[C@H](Cc1c[nH]c2ccccc12)NC(=O)[C@H](Cc1ccc(O)cc1)NC(=O)CNC(=O)[C@@H]1CCCN1C(=O)[C@@H](NC(=O)[C@H](Cc1c[nH]c2ccccc12)NC(=O)[C@H](CCC(=O)O)NC(=O)[C@@H](N)Cc1ccccc1)[C@@H](C)O)C(N)=O` [FEWTPGYWQJA--NH2] (H-FEWTPGYWQ[Aze]A-NH2) stands at least 4.00; under `CC(=O)N[C@@H](Cc1ccccc1)C(=O)N[C@@H](CCC(=O)O)C(=O)N[C@@H](Cc1c[nH]c2ccccc12)C(=O)N[C@H](C(=O)N1CCC[C@H]1C(=O)NCC(=O)N[C@@H](Cc1ccc(C(=O)c2ccccc2)cc1)C(=O)N[C@@H](Cc1ccc(O)cc1)C(=O)N[C@@H](CCC(N)=O)C(=O)N1CC[C@H]1C(=O)N[C@@H](Cc1ccc(O)cc1)C(N)=O)[C@@H](C)O` [AcFEWTPG--Bpa--YQJY--NH2] (Ac-FEWTPG[Bpa]YQ[Aze]Y-NH2), at least 6.30. On to WWQPYALPL [WWQPYALPL], for which the pIC50 under setting [1] was at least 4.00. Same read-out and setting: under RPLYWQPYSVQV [RPLYWQPYSVQV] stands at least 4.00.

In the case of EIMFWQPYALPL [EIMFWQ PYALPL], under setting [1], the pIC50 is at least 4.00.

With `C[C@@H](O)[C@H](NC(=O)[C@H](Cc1c[nH]c2ccccc12)NC(=O)[C@H](CCC(=O)O)NC(=O)[C@@H](N)Cc1ccccc1)C(=O)N1CCCC[C@H]1C(=O)NCC(=O)N[C@@H](Cc1ccc(O)cc1)C(=O)N[C@@H](Cc1c[nH]c2ccccc12)C(=O)N[C@@H](CCC(N)=O)C(=O)N1CC[C@H]1C(=O)N[C@@H](Cc1ccc(O)cc1)C(N)=O` [FEWTPecGYWQJY--NH2] (H-FEWT[Pip]GYWQ[Aze]Y-NH2), the pIC50 under setting [1] was at least 6.30. Still for that read-out and setting: under “NMVYWQPYSIQT [Peptide 3H7, NMVYWQPYSIQT]” stands at least 4.00; under FIEWFQPYALPL [FIEWFQ PYALPL], at least 4.00.

The compound `C[C@@H](O)[C@H](NC(=O)[C@H](Cc1c[nH]c2ccccc12)NC(=O)[C@H](CCC(=O)O)NC(=O)[C@@H](N)Cc1ccccc1)C(=O)N1CCC[C@H]1C(=O)NCC(=O)N[C@@H](Cc1ccc(C(=O)c2ccccc2)cc1)C(=O)N[C@@H](Cc1ccc(O)cc1)C(=O)N[C@@H](CCC(N)=O)C(=O)N1CC[C@H]1C(=O)N[C@@H](Cc1ccc(O)cc1)C(N)=O` [FEWTPG--Bpa--YQJY--NH2] (H-FEWTPG[Bpa]YQ[Aze]Y-NH2) had a pIC50 under setting [1] of at least 6.30. Still for that read-out and setting: under `C[C@@H](O)[C@H](NC(=O)[C@H](Cc1c[nH]c2ccccc12)NC(=O)[C@H](CCC(=O)O)NC(=O)[C@@H](N)Cc1ccccc1)C(=O)N(C)CC(=O)NCC(=O)N[C@@H](Cc1ccc(O)cc1)C(=O)N[C@@H](Cc1c[nH]c2ccccc12)C(=O)N[C@@H](CCC(N)=O)C(=O)N1CC[C@H]1C(=O)N[C@@H](Cc1ccc(O)cc1)C(N)=O` [FEWTSarGYWQJY--NH2] (H-FEWT[Sar]GYWQ[Aze]Y-NH2) stands at least 6.30. Take `C[C@@H](O)[C@H](NC(=O)[C@H](Cc1c[nH]c2ccccc12)NC(=O)[C@H](CCC(=O)O)NC(=O)[C@@H](N)Cc1ccccc1)C(=O)N1CC[C@H]1C(=O)NCC(=O)N[C@@H](Cc1ccc(O)cc1)C(=O)N[C@@H](Cc1c[nH]c2ccccc12)C(=O)N[C@@H](CCC(N)=O)C(=O)N1CC[C@H]1C(=O)N[C@@H](Cc1ccc(O)cc1)C(N)=O` [FEWTJGYWQJY--NH2] (H-FEWT[Aze]GYWQ[Aze]Y-NH2): under setting [1], the pIC50 is at least 6.30. Still for that read-out and setting: the value for RWEQPYVKDGWS [RWEQPYVKDGWS] was at least 4.00; that for SHLYWQPYSVQ [Peptide 2H2, SHLYWQPYSVQ] was at least 4.00. With FEWTPGYWQPYALPL [FEWTPGYWQPYALPL], the pIC50 is over 6.30. For the same compound, the negative logarithm of the IC50 (pIC50) under setting [1] was at least 6.30. Take SDIWYQPYALPL [SDIWYQ PYALPL]: the pIC50 under setting [1] was at least 4.00. Still for that read-out and setting: under `C[C@@H](O)[C@H](NC(=O)[C@H](Cc1c[nH]c2ccccc12)NC(=O)[C@H](CCC(=O)O)NC(=O)[C@@H](N)Cc1ccccc1)C(=O)N1CCC[C@H]1C(=O)NC(C)(C)C(=O)N[C@@H](Cc1ccc(O)cc1)C(=O)N[C@@H](Cc1c[nH]c2ccccc12)C(=O)N[C@@H](CCC(N)=O)C(=O)N1CC[C@H]1C(=O)N[C@@H](Cc1ccc(O)cc1)C(N)=O` [FEWTPAibYWQJY--NH2] (H-FEWTP[Aib]YWQ[Aze]Y-NH2) stands at least 6.30; under “VHVYWQPYSVQT [Peptide 3H5, VHVYWQPYSVQT]”, at least 4.00.

WGNWWQPYSVHR [WGNWWQPYSVHR]: the pIC50 under setting [1] is under 4.00.

For WGEWLQPYALPL [WGEWLQ PYALPL], under setting [1], the pIC50 was at least 4.00. The compound `C[C@H](NC(=O)CNC(=O)[C@@H]1CCCN1C(=O)[C@@H](NC(=O)[C@H](Cc1c[nH]c2ccccc12)NC(=O)[C@H](CCC(=O)O)NC(=O)[C@@H](N)Cc1ccccc1)[C@@H](C)O)C(=O)N[C@@H](Cc1c[nH]c2ccccc12)C(=O)N[C@@H](CCC(N)=O)C(=O)N1CC[C@H]1C(=O)N[C@@H](Cc1ccc(O)cc1)C(N)=O` [FEWTPGAWQJY--NH2] (H-FEWTPGAWQ[Aze]Y-NH2) showed a pIC50 under setting [1] of 6.30. On the same count and under the same terms, under DYVWQQPYALPL [DYVWQQ PYALPL] stands at least 4.00; under GWEQPYARGLAG [GWEQPYARGLAG], at least 4.00; under `C[C@@H](O)[C@H](NC(=O)[C@H](Cc1c[nH]c2ccccc12)NC(=O)[C@H](CCC(=O)O)NC(=O)[C@@H](N)Cc1ccccc1)C(=O)N1CCC[C@H]1C(=O)N(C)CC(=O)N[C@@H](Cc1c[nH]c2ccccc12)C(=O)N[C@@H](Cc1ccc(O)cc1)C(=O)N[C@@H](CCC(N)=O)C(=O)N1CC[C@H]1C(=O)N[C@@H](Cc1ccc(O)cc1)C(N)=O` [FEWTPSarWYQJY--NH2] (H-FEWTP[Sar]WYQ[Aze]Y-NH2), at least 6.30.

Under setting [1], GWWQPYARGL [GWWQPYARGL] showed a pIC50 of at least 4.00. Still for that read-out and setting: under `C[C@H](NC(=O)[C@H](Cc1c[nH]c2ccccc12)NC(=O)[C@H](CCC(=O)O)NC(=O)[C@@H](N)Cc1ccccc1)C(=O)N1CCC[C@H]1C(=O)NCC(=O)N[C@@H](Cc1ccc(O)cc1)C(=O)N[C@@H](Cc1c[nH]c2ccccc12)C(=O)N[C@@H](CCC(N)=O)C(=O)N1CC[C@H]1C(=O)N[C@@H](Cc1ccc(O)cc1)C(N)=O` [FEWAPGYWQJY--NH2] (H-FEWAPGYWQ[Aze]Y-NH2) stands at least 6.30; under GWYQPYVDGWR [GWYQPYVDGWR], at least 4.00. Same read-out and setting: under MWYQPYSSQPAE [MWYQPYSSQPAE] stands at least 4.00.

As usually defined, the pIC50 is −log10 of the IC50, conventionally taken in molar units. Low readings indicate a large IC50, high ones a small IC50.

Values taken from patent publication US5861476A, “Peptides and compounds that bind to the IL-1 receptor” (Affymax Technologies N.V., priority 1995, dated 1999).
